Reference: US20050112131A1, “Methods of adjuvant photodynamic therapy to enhance radiation sensitization” (priority 2002, published 2005)

Experiments:
[1] = test system: RIF-1 cells; test: In vitro cellular oxygen consumption rate by EPR oximetry; type: cell-based, mouse; conditions: 1 μg/ml BPD, 3-hour incubation
Description: RIF-1 cells were plated three days prior to treatment in black, plastic 96-well plates with a transparent bottom (Fisher Scientific, Springfield, N.J.) at a density of 5000 cells/200 μl medium/well. After 3 days of growth in 5% CO2 at 37° C. in a humidified incubator, the cells were used in photodynamic therapy. On the day of treatment, the medium was replaced with 100 μl/well of medium with 1 μg/ml BPD in the verteporfin preparation. After a 3-hour incubation, the BPD solution was removed and rinsed once with Hanks Balanced Salt Solution (HBSS), then 100 μl of fresh medium was added to the wells. Cells were irradiated in groups of four wells, with blank wells between the treated groups to ensure that each group of wells received the correct dose of light. In each 96-well plate, squares of 4 were treated with increasing light doses with 8 groups/plate, including the control, non-irradiated group. Surviving cells were assayed for viability and/or cellular oxygen consumption.
Immediately following photodynamic therapy, cells were trypsinized, suspended in fresh medium, and cell viability determined by trypan blue dye exclusion prior to use in oxygen consumption measurement. […] The rate of oxygen consumption was measured using EPR. […] A Bruker EMX EPR spectrometer measured all spectra, operating at 9 GHz. […] The slope of the obtained data was determined by linear regression. […]

[2] = test system: RIF-1 tumors; test: Tumor regrowth assay, photodynamic therapy alone or combined with radiation; type: in vivo, mice
Description: The combination effect of photodynamic therapy and radiation therapy was examined in in vivo tumor models. Injection of PBD or saline (control) was given 3 hours prior to irradiation in all animals. Light at 690 nm wavelength was delivered t the photodynamic therapy treated animals while the animal was positioned in the irradiator cone. An irradiance of 133 mW/cm^2 was used for a total of 12 minutes, for a total dose of 100 J/cm^2. Radiation was administered at a single dose of 10 Gy (300 keV, 10 mA, HVL=2.33 Gy/min). The following groups were organized: (1) sham-irradiated controls, (2) radiation treatment alone, (3) photodynamic therapy alone, (4) radiation treatment followed by photodynamic therapy, and (5) photodynamic therapy with simultaneous radiation treatment. In Group 4, X-ray radiation was administered for the full 3-minute treatment period after the photosensitizer was injected and incubated in the animal for 3 hours, then irradiation was given for 12 minutes. The Group 5 animals received irradiation 3 hours after drug injection, and during the last three minutes of the irradiation. X-ray irradiation was also given to the tumor at the same time.
Irradiation using the 10 Gy dose using approximately 300 keV was delivered in 3 minutes from a Pantak Therapax 300 orthovoltage irradiator, using a 2 cm collimation cone. This cone was contacted with a region of the mouse leg surrounding the tumor. The end of the collimation cone was comprised of transparent plastic, allowing radiation and treatment to occur at the same time (required for Group 5, where photodynamic therapy and radiation were simultaneously administered). All animals were treated with the cone in place, as well as Group 1 sham-irradiated mice and Group 3 photodynamic therapy alone mice. This was performed to ensure equal doses of light were given to all groups, which included changes in the beam from reflection and refraction through the irradiator cone.
Each group of mice were assayed for tumor regrowth following combined radiation/photodynamic therapy, radiation alone, or photodynamic therapy alone. The resulting treatment effect was assayed by calculation of tumor volume, as calculated by measurement of the three major axis dimensions: Volume≅Length×Width×Height/2 The time for a tumor to reach double its volume on the day of treatment was calculated for each individual animal separately, by estimating the data by a linear fit to logarithmic growth curves versus time. The average values from these times to double in volume were determined for each group of mice. Analysis of the tumor regrowth data, estimates of the mean double time (including standard deviation), and mice heterogeneity was achieved by generating individual growth curve data and fitting with a mixed effect model. It was assumed that after day 3, the tumor re-grows exponentially, which corresponds to a linear function when plotted on a semi-logarithmic graph. The time for a tumor to reach double its volume on the day of treatment was calculated for each group along with the respective standard deviation. The standard error gives rise to the group comparison using X-test to account for significant differences between the mean values of the different treatment groups.

[3] = test system: RIF-1 tumors; test: Tumor oxygen by EPR oximetry at different irradiances; type: in vivo, mice; conditions: light 3 hours post-injection
Description: Tumor oxygen changes were measured in mice treated either with aminolevulinic acid-induced protoporphyrin IX (ALA-PPIX) or verteporfin. Using electron paramagnetic resonance (EPR) oximetry described in Example 1, two irradiance levels were performed three hours post-injection of verteporfin or ALA-PPIX. Irradiance levels for ALA-PPIX were 30 mW/cm^2 and 150 mW/cm^2, whereas 50 mW/cm^2 and 200 mW/cm^2 were used for verteporfin.
EPR oximetry measured tumor oxygenation in RIF-1 tumor cells and in tumorigenic mice treated with photodynamic therapy, using synthetic lithium phthalocyanine (LiPc) as the oxygen-sensitive EPR material. Small particles between 50 and 200 μm in size were implanted into the animal tumors by 23-gauge needle at a depth of 1-3 mm within the tumor. Injections of LiPc were performed at least 24 hours prior to photodynamic therapy. Mice were placed in an L-band (1.2 GHz) EPR spectrometer with a microwave bridge that was custom-built for small animal experiments involving measurement of tissue pO2. Each mouse was anesthetized and placed in the EPR resonator for continuous measurement of the tumor tissue pO2 in 15-minute intervals. The external loop resonator was positioned over the tumor to record the EPR signal of injected LiPc within the tissue. Line widths of the EPR signal were converted to pO2 using a calibration curve determined for LiPc. The data were fit with a software program to match the Voigt line shape after the line widths were graphed as a function of time before, during, and after treatment.

[4] = Group 4, radiation (10 Gy) then PDT
[5] = Group 5, PDT with simultaneous radiation (10 Gy)

Substance: benzoporphyrin derivative mono-acid ring ‘A’ (BPD-MA) [Verteporfin]
- oxygen consumption rate ([1]; highest light dose 16 J/cm^2): 0.37±0.04 mmol/min/10^6 cells
- oxygen consumption as % of control oxygen consumption rates ([1]; maximal light dose): 21±4%
- Re-growth Delay in Doubling Time ([2]; Group 3, PDT only): 3.2 ± 1.7
- slope of the natural logarithm of tumor volume versus days ([2]; Group 3, PDT only): 0.13
- Time for Tumor to Double Initial Volume ([2]; Group 3, PDT only, injection 3 hours before 690 nm light, 100 J/cm^2): 8.9 ± 1.7
- Re-growth Delay in Doubling Time [2, 4]: 5.4 ± 1.4
- Time for Tumor to Double Initial Volume [2, 4]: 11.0 ± 1.5
- slope of the natural logarithm of tumor volume versus days ([2]; Group 4, radiation then PDT): 0.13
- slope of the natural logarithm of tumor volume versus days ([2]; Group 5, PDT with simultaneous radiation): 0.11
- Re-growth Delay in Doubling Time [2, 5]: 8.1 ± 1.5
- Time for Tumor to Double Initial Volume [2, 5]: 13.7 ± 1.6
- tumor pO2 levels during treatment, low irradiance ([3]; 50 mW/cm^2 verteporfin, 30 mW/cm^2 ALA-PPIX): remained the same
- tumor pO2 levels during treatment, high irradiance ([3]; 200 mW/cm^2 verteporfin, 150 mW/cm^2 ALA-PPIX): remained the same
